Source: article PMC9913320, “Development of ^99mTc-Hynic-Adh-1 Molecular Probe Specifically Targeting N-Cadherin and Its Preliminary Experimental Study in Monitoring Drug Resistance of Non-Small-Cell Lung Cancer” (Cancers, 2023)

Key:
[1] = Biodistribution in xenograft-bearing nude mice, PC9 tumor; type: in vivo, BALB/c nude mice; conditions: mouse, tumor (PC9), iv, 0.74 MBq, xenograft-bearing nude mice, i.v., read-out: Biodistribution, T(PC9)
Method: (§1) All animal research was performed in accordance with the Zhejiang University Institutional Animal Care and Use Committee guidelines. PC9 and PC9GR cells (2 × 10^6 cells per mice) were injected subcutaneously into the flanks of 2- to 4-week old BALB/c nude mice (left: PC9GR, right: PC9). The cells were allowed to grow 3–5 weeks until tumors were 1 ± 0.5 cm^3 in volume. Normal C57/BL6 mice (aged 6 to 8 wks old) were obtained from the Animal Center of the First Affiliated Hospital of Zhejiang University. All animals were maintained with free access to food and water and used a standard diet, bedding and environment.
(§2) The radiotracer (0.1 mL, 0.74 MBq) was injected intravenously into normal C57/BL6 mice and xenograft models as previously described (n = 4 per group per time) via the tail vein. After different time intervals (30, 60, 120 and 240 min), the mice were sacrificed by cervical dislocation, and their blood, tumors and major organs (brain, heart, lung, liver, spleen, kidney, stomach, intestine, muscle, bone and skin) were harvested and weighed. The radioactivity of each sample was measured with a γ-counter. Values are shown as the percentage of the injected dose per gram (%ID/g), which corrected for background and decay to maintain consistency.

PC9 tumor [2] = experiment: as above; type: in vivo, BALB/c nude mice; conditions: biodistribution, tumor-bearing mice
Method: as §1, §2

[3] = In vitro stability in PBS; type: physicochemical; conditions: PBS pH 7.4, room temperature
Method: In vitro stability studies of ^99mTc-HYNIC-ADH1 were performed in FBS as well as PBS solution. A total of 50 μL of ^99mTc-HYNIC-ADH1 was mixed with 950 μL of FBS (or PBS), and its radioactivity was measured after being incubated at room temperature for 0.5, 1, 2, 4, 6 and 24 h, respectively.
For stability assessments, ^99mTc-HYNIC-ADH-1 (3.7 MBq) was incubated in PBS (pH 7.4) or FBS for 24 h. […] The radiochemical purities were 98.51%, 98.50%, 97.97%, 98.02%, 98.81%, 98.09% and 98.09% in FBS at room temperature at 0.5, 1, 2, 3, 6, 12 and 24 h, respectively.

[4] = Biodistribution in xenograft-bearing nude mice, PC9GR tumor; type: in vivo, BALB/c nude mice; conditions: mouse, iv, 0.74 MBq, xenograft-bearing nude mice, i.v., read-out: Biodistribution, T(PC9GR)
Method: as §1, §2

PC9GR tumor [5] = experiment: as above; type: in vivo, BALB/c nude mice; conditions: biodistribution, tumor-bearing mice
Method: as §1, §2

[6] = Partition coefficient (Log D), 1-octanol/PBS; type: physicochemical; conditions: 1-octanol and PBS (pH 7.4), n = 3
Method: Partition coefficients (Log D) of ^99mTc-HYNIC-ADH-1 were measured through the assessment of the distribution of radioactivity in 1-octanol and phosphate buffer in a 2 mL centrifuge tube. A 10 µL ^99mTc-HYNIC-ADH-1 solution was added to a vial containing 1 mL each of 1-octanol and PBS (pH 7.4). After vortexing for 10 min, the vial was centrifuged for 10 min to ensure complete separation of the layers. Then, 10 µL of each layer was pipetted into separate test tubes, and the counts were measured using a γ counter. Partition coefficients are shown as the log counts in 1-octanol vs. PBS layers (n = 3).

PC9GR tumor [7] = experiment: Small animal SPECT/CT imaging, ROI analysis; type: in vivo, BALB/c nude mice; conditions: 1 h
Method: as §1
(§3) Xenograft models were imaged using a nanoScan SPECT/CT (Mediso, Hungary) in vivo imaging system and anesthetized with 2% isoflurane before imaging. Mice in the non-blocked group (n = 4) were injected via tail vein with 3.7 MBq (100 μL) of radiotracer and imaged at different time points (1, 2 and 6 h). In the blocked group, 100 μL excess ADH-1 was injected through the tail vein 30 min in advance, and then the same volume and dose of imaging agent were injected for 1 h after imaging.
(§4) Three-dimensional ROIs were delineated along the edge of the tumor using SPECT/CT analysis software. Spherical ROIs of 0.03 cm^3 were delineated in organs or tissues (liver and muscle). The radiation intensity of each region was measured, and the tumor/non-tumor ratio was calculated.

PC9 tumor [8] = experiment: Small animal SPECT/CT imaging, ROI analysis; type: in vivo, BALB/c nude mice; conditions: non-blocked, 1 h
Method: as §1, §3, §4

## CC(=O)N[C@H]1CSSC[C@@H](C(=O)NCCNC(=O)c2ccc(NN)nc2)NC(=O)[C@H](C(C)C)NC(=O)[C@H](C)NC(=O)[C@H](Cc2c[nH]cn2)NC1=O [^99mTc-HYNIC-ADH-1, metal not drawn]
[1]; 30 min
  tissue uptake at 0.5 h: 0.99 ± 0.15 %ID/g
[1]; 60 min
  tissue uptake at 1 h: 0.91 ± 0.03 %ID/g
[1]; 120 min
  tissue uptake at 2 h: 0.79 ± 0.06 %ID/g
[1]; 240 min
  tissue uptake at 4 h: 0.64 ± 0.16 %ID/g
PC9 tumor [2]; 30 min
  T/NT PC9/Kidney: 0.27 ± 0.06
  T/NT PC9/Liver: 1.36 ± 0.15
  T/NT PC9/Muscle: 1.97 ± 0.21
PC9 tumor [2]; 1 h
  T/NT PC9/Kidney: 0.27 ± 0.03
  T/NT PC9/Liver: 1.58 ± 0.06
  T/NT PC9/Muscle: 2.59 ± 0.34
PC9 tumor [2]; 2 h
  T/NT PC9/Kidney: 0.26 ± 0.06
  T/NT PC9/Liver: 1.41 ± 0.21
  T/NT PC9/Muscle: 3.36 ± 0.08
PC9 tumor [2]; 4 h
  T/NT PC9/Kidney: 0.25 ± 0.02
  T/NT PC9/Liver: 1.01 ± 0.31
  T/NT PC9/Muscle: 2.78 ± 0.28
[3]; 0.5 h
  radiochemical purity: 99.01%
[3]; 1 h
  radiochemical purity: 98.81%
[3]; 2 h
  radiochemical purity: 98.55%
[3]; 3 h
  radiochemical purity: 99.02%
[3]; 6 h
  radiochemical purity: 98.52%
[3]; 12 h
  radiochemical purity: 98.01%
[4]; tumor (PC9GR), 120 min
  tissue uptake at 2 h: 1.32 ± 0.08 %ID/g
[4]; tumor, 30 min
  tissue uptake at 0.5 h: 1.09 ± 0.15 %ID/g
[4]; tumor, 60 min
  tissue uptake at 1 h: 1.26 ± 0.1 %ID/g
[4]; tumor, 240 min
  tissue uptake at 4 h: 0.75 ± 0.19 %ID/g
PC9GR tumor [5]; 30 min
  T/NT PC9GR/Kidney: 0.42 ± 0.10
  T/NT PC9GR/Liver: 1.64 ± 0.24
  T/NT PC9GR/Muscle: 2.41 ± 0.12
PC9GR tumor [5]; 1 h
  T/NT PC9GR/Kidney: 0.27 ± 0.04
  T/NT PC9GR/Liver: 1.58 ± 0.12
  T/NT PC9GR/Muscle: 2.64 ± 0.47
PC9GR tumor [5]; 2 h
  T/NT PC9GR/Kidney: 0.49 ± 0.20
  T/NT PC9GR/Liver: 2.14 ± 0.69
  T/NT PC9GR/Muscle: 5.19 ± 1.89
PC9GR tumor [5]; 4 h
  T/NT PC9GR/Kidney: 0.26 ± 0.13
  T/NT PC9GR/Liver: 1.36 ± 0.69
  T/NT PC9GR/Muscle: 3.62 ± 1.92
[6]
  logD: -2.45 ± 0.1
PC9GR tumor [7]; blocked group (excess unlabeled ADH-1 30 min in advance)
  T/N (tumor to adjacent muscle radioactivity intensity, SPECT/CT ROI): 3.69 ± 0.50
PC9GR tumor [7]; non-blocked
  T/N (tumor to adjacent muscle radioactivity intensity, SPECT/CT ROI): 7.73 ± 0.54
PC9 tumor [8]
  T/N (tumor to adjacent muscle radioactivity intensity, SPECT/CT ROI): 3.66 ± 0.78
